Literature values as cited in patent US5152997A, “Method and device for transdermally administering testosterone across nonscrotal skin at therapeutically effective levels” (Theratech, Inc., priority 1991, dated 1992).

Columns and labels:
[1] = e.g., neck, back, chest, arms; for delivery of 5-10 mg/day through a limited area

| SMILES | systemic availability of testosterone (oral administration) | permeability to testosterone of skin areas normally used for transdermal delivery [1] | degradation by the liver (administered orally) |
| --- | --- | --- | --- |
| CCCCCCCCCCC(=O)O[C@H]1CC[C@H]2[C@@H]3CCC4=CC(=O)CC[C@]4(C)[C@H]3CC[C@]12C [testosterone undecanoate] | provides systemically available testosterone |  |  |
| C[C@]12CC[C@H]3[C@@H](CCC4=CC(=O)CC[C@@]43C)[C@@H]1CC[C@@H]2O [testosterone] |  | too low to permit delivery of the amounts of testosterone needed for therapy | rapidly degraded by the liver |
